Data as given in BindingDB's records for doi:10.1124/jpet.102.040394 (Merck Sharp and Dohme Research Laboratories, 2002).

Experiments:
[1] = target: Transient receptor potential cation channel subfamily V member 1 (Rattus norvegicus, UniProt O35433)
[2] = target: Transient receptor potential cation channel subfamily V member 1 (Homo sapiens, UniProt Q8NER1)
Sequence of Transient receptor potential cation channel subfamily V member 1 (Homo sapiens, UniProt Q8NER1) (Q8NER1 whole entry): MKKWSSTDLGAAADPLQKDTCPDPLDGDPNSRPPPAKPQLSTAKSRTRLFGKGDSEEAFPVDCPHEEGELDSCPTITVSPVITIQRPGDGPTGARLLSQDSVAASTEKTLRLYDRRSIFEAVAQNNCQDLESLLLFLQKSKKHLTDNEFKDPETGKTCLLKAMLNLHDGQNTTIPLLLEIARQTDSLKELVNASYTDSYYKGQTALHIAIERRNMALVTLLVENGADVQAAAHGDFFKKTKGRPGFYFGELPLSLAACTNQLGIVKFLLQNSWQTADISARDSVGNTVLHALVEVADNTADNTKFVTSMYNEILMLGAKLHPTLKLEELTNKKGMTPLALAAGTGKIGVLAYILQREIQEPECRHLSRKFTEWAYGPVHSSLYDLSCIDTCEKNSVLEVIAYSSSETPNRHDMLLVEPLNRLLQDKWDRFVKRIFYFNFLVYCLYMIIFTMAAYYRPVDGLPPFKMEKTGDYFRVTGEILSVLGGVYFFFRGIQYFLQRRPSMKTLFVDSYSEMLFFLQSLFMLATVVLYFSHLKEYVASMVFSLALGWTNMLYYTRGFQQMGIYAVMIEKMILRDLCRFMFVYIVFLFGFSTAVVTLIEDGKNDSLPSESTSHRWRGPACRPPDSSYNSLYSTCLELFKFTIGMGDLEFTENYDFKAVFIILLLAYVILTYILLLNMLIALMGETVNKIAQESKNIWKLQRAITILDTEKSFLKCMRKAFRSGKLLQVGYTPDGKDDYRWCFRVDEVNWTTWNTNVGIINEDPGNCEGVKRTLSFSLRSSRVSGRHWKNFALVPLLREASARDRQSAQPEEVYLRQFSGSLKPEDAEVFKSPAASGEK

Sequence of Transient receptor potential cation channel subfamily V member 1 (Rattus norvegicus, UniProt O35433) (O35433 whole entry): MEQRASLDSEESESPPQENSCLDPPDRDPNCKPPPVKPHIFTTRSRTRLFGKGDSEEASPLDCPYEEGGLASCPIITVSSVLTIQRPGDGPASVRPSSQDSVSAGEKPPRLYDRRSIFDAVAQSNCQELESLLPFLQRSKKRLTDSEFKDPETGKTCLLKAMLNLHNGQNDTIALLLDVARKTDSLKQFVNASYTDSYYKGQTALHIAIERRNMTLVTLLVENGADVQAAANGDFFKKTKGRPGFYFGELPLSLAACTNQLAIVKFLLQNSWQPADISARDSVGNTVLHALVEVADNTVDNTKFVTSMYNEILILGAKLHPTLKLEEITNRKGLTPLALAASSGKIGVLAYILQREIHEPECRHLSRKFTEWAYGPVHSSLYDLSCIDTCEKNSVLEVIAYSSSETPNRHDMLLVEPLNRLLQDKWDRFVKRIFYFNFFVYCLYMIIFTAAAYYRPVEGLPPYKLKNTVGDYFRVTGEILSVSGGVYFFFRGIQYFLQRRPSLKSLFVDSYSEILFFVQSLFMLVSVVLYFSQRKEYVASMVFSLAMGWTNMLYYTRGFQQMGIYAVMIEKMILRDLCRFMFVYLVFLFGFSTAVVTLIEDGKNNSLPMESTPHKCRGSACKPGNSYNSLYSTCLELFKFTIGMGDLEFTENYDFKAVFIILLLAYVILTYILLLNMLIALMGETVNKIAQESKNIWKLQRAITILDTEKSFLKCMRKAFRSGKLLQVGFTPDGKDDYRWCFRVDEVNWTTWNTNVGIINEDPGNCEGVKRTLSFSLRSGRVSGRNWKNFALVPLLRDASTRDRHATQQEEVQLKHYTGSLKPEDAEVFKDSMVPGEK

Compound | Ki [1] | Ki [2]
Oc1cc2c(cc1O)CN(C(=S)NCCc1ccc(Cl)cc1)CCC2 [N-[2-(4-chlorophenyl)ethyl]-7,8-dihydroxy-2,3,4,5-tetrahydro-1H-2-benzazepine-2-carbothioamide] | 4300 nM | 
C=C(C)[C@]12C[C@@H](C)[C@@]34O[C@](Cc5ccccc5)(O[C@@H]1[C@@H]3C(COC(=O)Cc1cc(I)c(O)c(OC)c1)=CC[C@@H]1C(=O)C(C)=C[C@H]14)O2 [5'-IODORESINIFERATOXIN] | 0.39 nM | 6.7 nM
